# Results taken from patent publication US20070128217A1 (priority 2003, published 2007).
# Legend:
# [1] = system: antibodies in sera from SARS patients (sera 1a, 1b, 2, 6, 37, 62, London, SARS-yellow, SARS-green); type: binding, human; parameters: Binding of serum 6 to linear peptides of protein X1 of SARS-CoV Urbani / Binding of serum 37 to linear peptides of protein X1 of SARS-CoV Urbani / Binding of serum 6 to looped/cyclic peptide (PEPSCAN-ELISA) / Binding of serum 37 to looped/cyclic peptide (PEPSCAN-ELISA) / Binding of serum 37 to looped/cyclic peptides of protein X1 of SARS-CoV Urbani / Binding of serum 6 to linear peptides of protein X2 / Binding of serum 37 to linear peptides of protein X2 / Binding of serum 37 to looped/cyclic peptides of protein X2 of SARS-CoV Urbani / Binding of serum 6 to linear peptides of protein M of SARS-CoV Urbani / Binding of serum 37 to linear peptides of protein M of SARS-CoV Urbani / Binding of serum 6 to looped/cyclic peptides of protein M of SARS-CoV Urbani / Binding of serum 37 to looped/cyclic peptides of protein M of SARS-CoV Urbani / Binding of serum 6 to linear peptides of protein X3 of SARS-CoV Urbani / Binding of serum 37 to linear peptides of protein X3 of SARS-CoV Urbani / Binding of serum 37 to looped/cyclic peptides of protein X3 of SARS-CoV Urbani / Binding of serum 6 to linear peptides of protein X4 of SARS-CoV Urbani / Binding of serum 37 to linear peptides of protein X4 of SARS-CoV Urbani / Binding of serum 37 to looped/cyclic peptides of protein X4 of SARS-CoV Urbani / Binding of serum 6 to linear peptides of protein X5 of SARS-CoV Urbani / Binding of serum 37 to linear peptides of protein X5 of SARS-CoV Urbani / Binding of serum 37 to looped/cyclic peptides of protein X5 of SARS-CoV Urbani / Binding of serum 6 to linear peptides of protein N of SARS-CoV Urbani / Binding of serum 37 to linear peptides of protein N of SARS-CoV Urbani / Binding of serum 6 to linear peptide (PEPSCAN-ELISA) / Binding of serum 1a to looped/cyclic peptides of protein N of SARS-CoV Urbani / Binding of serum 1b to looped/cyclic peptides of protein N of SARS-CoV Urbani / Binding of serum 2 to looped/cyclic peptides of protein N of SARS-CoV Urbani / Binding of serum 6 to looped/cyclic peptides of protein N of SARS-CoV Urbani / Binding of serum 37 to looped/cyclic peptides of protein N of SARS-CoV Urbani / Binding of serum 62 to looped/cyclic peptides of protein N of SARS-CoV Urbani / Binding of serum London to looped/cyclic peptides of protein N of SARS-CoV Urbani / Binding of serum SARS-green to looped/cyclic peptides of protein N of SARS-CoV Urbani: unit not given here
# [2] = system: control sera (pooled serum of ten healthy LUMC hospital workers; commercial negative donor pooled serum from the Dutch bloodbank); type: binding, human; parameters: Binding of Control serum LUMC to linear peptides / Binding of Control serum Blood-bank to linear peptides / Binding of Control serum LUMC to looped peptides / Binding of Control Serum Blood-Bank to Looped peptides / Binding of Control serum LUMC to linear peptides of the protein M of SARS-CoV Urbani / Binding of Control serum Blood-bank to linear peptides of the protein M of SARS-CoV Urbani / Binding of Control serum LUMC to looped peptides of the protein M of SARS-CoV Urbani / Binding of Control Serum Blood-Bank to Looped peptides of the protein M of SARS-CoV Urbani: unit not given here
# [3] = system: rabbit serum obtained by immunizing a rabbit with the SARS-CoV strain Frankfurt 1; type: binding; parameters: Binding of a rabbit serum to linear peptides / Binding of a rabbit serum to looped peptides / Rabbit serum linear peptides / Rabbit serum looped peptides / Binding of a rabbit serum to linear peptides of protein N of SARS-CoV Urbani (Rabbit serum linear peptides) / Binding of a rabbit serum to looped/cyclic peptides of protein N of SARS-CoV Urbani (Rabbit serum looped peptides): unit not given here
# [4] = system: recombinant human anti-SARS-CoV antibody 03-018; type: binding; parameters: Binding of antibody 03-018 to linear peptides of the N protein of SARS-CoV Urbani / Binding of antibody 03-018 to looped/cyclic peptides of the N protein of SARS-CoV Urbani: unit not given here
sequence,measurement,setting,value
GDQDLIRQGTDYKHW,Binding of serum 1a to linear peptide (PEPSCAN-ELISA),[1],0.2
same,Binding of serum 1a to looped/cyclic peptides of protein N of SARS-CoV Urbani,[1],0.4
same,Binding of serum 1b to linear peptide (PEPSCAN-ELISA),[1],0.1
same,Binding of serum 1b to looped/cyclic peptides of protein N of SARS-CoV Urbani,[1],0.2
same,Binding of serum 2 to linear peptide (PEPSCAN-ELISA),[1],0.2
same,Binding of serum 2 to looped/cyclic peptides of protein N of SARS-CoV Urbani,[1],0.4
same,Binding of serum 6 to linear peptide (PEPSCAN-ELISA),[1],0.3
same,Binding of serum 6 to looped/cyclic peptides of protein N of SARS-CoV Urbani,[1],0.3
same,Binding of serum 37 to linear peptide (PEPSCAN-ELISA),[1],0.6
same,Binding of serum 37 to looped/cyclic peptides of protein N of SARS-CoV Urbani,[1],0.6
same,Binding of serum 62 to linear peptide (PEPSCAN-ELISA),[1],0.7
same,Binding of serum 62 to looped/cyclic peptides of protein N of SARS-CoV Urbani,[1],0.5
same,Binding of serum London to linear peptide (PEPSCAN-ELISA),[1],0.9
same,Binding of serum London to looped/cyclic peptides of protein N of SARS-CoV Urbani,[1],0.4
same,Binding of serum SARS-green to linear peptide (PEPSCAN-ELISA),[1],0.5
same,Binding of serum SARS-green to looped/cyclic peptides of protein N of SARS-CoV Urbani,[1],0.4
same,Binding of serum SARS-yellow to linear peptide (PEPSCAN-ELISA),[1],0.7
same,Binding of serum SARS-yellow to looped/cyclic peptides of protein N of SARS-CoV Urbani,[1],0.3
same,Binding of Control Serum Blood-Bank to Looped peptides,[2],0.6
same,Binding of Control serum Blood-bank to linear peptides,[2],0.9
same,Binding of Control serum LUMC to linear peptides,[2],0.8
same,Binding of Control serum LUMC to looped peptides,[2],0.5
same,Binding of a rabbit serum to linear peptides of protein N of SARS-CoV Urbani (Rabbit serum linear peptides),[3],0.1
same,Binding of a rabbit serum to looped/cyclic peptides of protein N of SARS-CoV Urbani (Rabbit serum looped peptides),[3],0.5
same,Binding of antibody 03-018 to linear peptides of the N protein of SARS-CoV Urbani,[4],0.1
same,Binding of antibody 03-018 to looped/cyclic peptides of the N protein of SARS-CoV Urbani,[4],0.2
GETALALLLLDRLNQ,Binding of serum 1a to linear peptide (PEPSCAN-ELISA),[1],0.2
same,Binding of serum 1a to looped/cyclic peptides of protein N of SARS-CoV Urbani,[1],0.4
same,Binding of serum 1b to linear peptide (PEPSCAN-ELISA),[1],0.1
same,Binding of serum 1b to looped/cyclic peptides of protein N of SARS-CoV Urbani,[1],0.2
same,Binding of serum 2 to linear peptide (PEPSCAN-ELISA),[1],0.2
same,Binding of serum 2 to looped/cyclic peptides of protein N of SARS-CoV Urbani,[1],0.4
same,Binding of serum 6 to linear peptide (PEPSCAN-ELISA),[1],0.1
same,Binding of serum 6 to looped/cyclic peptides of protein N of SARS-CoV Urbani,[1],0.2
same,Binding of serum 37 to linear peptide (PEPSCAN-ELISA),[1],0.5
same,Binding of serum 37 to looped/cyclic peptides of protein N of SARS-CoV Urbani,[1],0.7
same,Binding of serum 62 to linear peptide (PEPSCAN-ELISA),[1],0.6
same,Binding of serum 62 to looped/cyclic peptides of protein N of SARS-CoV Urbani,[1],0.7
same,Binding of serum London to linear peptide (PEPSCAN-ELISA),[1],0.5
same,Binding of serum London to looped/cyclic peptides of protein N of SARS-CoV Urbani,[1],0.5
same,Binding of serum SARS-green to linear peptide (PEPSCAN-ELISA),[1],0.2
same,Binding of serum SARS-green to looped/cyclic peptides of protein N of SARS-CoV Urbani,[1],0.3
same,Binding of serum SARS-yellow to linear peptide (PEPSCAN-ELISA),[1],0.6
same,Binding of serum SARS-yellow to looped/cyclic peptides of protein N of SARS-CoV Urbani,[1],0.6
same,Binding of Control Serum Blood-Bank to Looped peptides,[2],0.7
same,Binding of Control serum Blood-bank to linear peptides,[2],0.6
same,Binding of Control serum LUMC to linear peptides,[2],0.6
same,Binding of Control serum LUMC to looped peptides,[2],0.7
same,Binding of a rabbit serum to linear peptides of protein N of SARS-CoV Urbani (Rabbit serum linear peptides),[3],0.2
same,Binding of a rabbit serum to looped/cyclic peptides of protein N of SARS-CoV Urbani (Rabbit serum looped peptides),[3],0.6
same,Binding of antibody 03-018 to linear peptides of the N protein of SARS-CoV Urbani,[4],0.1
same,Binding of antibody 03-018 to looped/cyclic peptides of the N protein of SARS-CoV Urbani,[4],0.3
GFYAEGSRGGSQASS,Binding of serum 1a to linear peptide (PEPSCAN-ELISA),[1],0.3
same,Binding of serum 1a to looped/cyclic peptides of protein N of SARS-CoV Urbani,[1],0.3
same,Binding of serum 1b to linear peptide (PEPSCAN-ELISA),[1],0.1
same,Binding of serum 1b to looped/cyclic peptides of protein N of SARS-CoV Urbani,[1],0.2
same,Binding of serum 2 to linear peptide (PEPSCAN-ELISA),[1],0.2
same,Binding of serum 2 to looped/cyclic peptides of protein N of SARS-CoV Urbani,[1],0.4
same,Binding of serum 6 to linear peptide (PEPSCAN-ELISA),[1],0.4
same,Binding of serum 6 to looped/cyclic peptides of protein N of SARS-CoV Urbani,[1],0.3
same,Binding of serum 37 to linear peptide (PEPSCAN-ELISA),[1],0.7
same,Binding of serum 37 to looped/cyclic peptides of protein N of SARS-CoV Urbani,[1],0.3
same,Binding of serum 62 to linear peptide (PEPSCAN-ELISA),[1],0.5
same,Binding of serum 62 to looped/cyclic peptides of protein N of SARS-CoV Urbani,[1],0.2
same,Binding of serum London to linear peptide (PEPSCAN-ELISA),[1],0.4
same,Binding of serum London to looped/cyclic peptides of protein N of SARS-CoV Urbani,[1],0.3
same,Binding of serum SARS-green to linear peptide (PEPSCAN-ELISA),[1],0.1
same,Binding of serum SARS-green to looped/cyclic peptides of protein N of SARS-CoV Urbani,[1],0.3
same,Binding of serum SARS-yellow to linear peptide (PEPSCAN-ELISA),[1],0.4
same,Binding of serum SARS-yellow to looped/cyclic peptides of protein N of SARS-CoV Urbani,[1],0.1
same,Binding of Control Serum Blood-Bank to Looped peptides,[2],0.5
same,Binding of Control serum Blood-bank to linear peptides,[2],0.7
same,Binding of Control serum LUMC to linear peptides,[2],0.6
same,Binding of Control serum LUMC to looped peptides,[2],0.5
same,Binding of a rabbit serum to linear peptides of protein N of SARS-CoV Urbani (Rabbit serum linear peptides),[3],0.1
same,Binding of a rabbit serum to looped/cyclic peptides of protein N of SARS-CoV Urbani (Rabbit serum looped peptides),[3],0.0
same,Binding of antibody 03-018 to linear peptides of the N protein of SARS-CoV Urbani,[4],0.1
same,Binding of antibody 03-018 to looped/cyclic peptides of the N protein of SARS-CoV Urbani,[4],0.2
GGETALALLLLDRLN,Binding of serum 1a to linear peptide (PEPSCAN-ELISA),[1],0.2
same,Binding of serum 1a to looped/cyclic peptides of protein N of SARS-CoV Urbani,[1],0.4
same,Binding of serum 1b to linear peptide (PEPSCAN-ELISA),[1],0.1
same,Binding of serum 1b to looped/cyclic peptides of protein N of SARS-CoV Urbani,[1],0.3
same,Binding of serum 2 to linear peptide (PEPSCAN-ELISA),[1],0.2
same,Binding of serum 2 to looped/cyclic peptides of protein N of SARS-CoV Urbani,[1],0.5
same,Binding of serum 6 to linear peptide (PEPSCAN-ELISA),[1],0.2
same,Binding of serum 6 to looped/cyclic peptides of protein N of SARS-CoV Urbani,[1],0.2
same,Binding of serum 37 to linear peptide (PEPSCAN-ELISA),[1],0.6
same,Binding of serum 37 to looped/cyclic peptides of protein N of SARS-CoV Urbani,[1],0.7
same,Binding of serum 62 to linear peptide (PEPSCAN-ELISA),[1],0.6
same,Binding of serum 62 to looped/cyclic peptides of protein N of SARS-CoV Urbani,[1],0.7
same,Binding of serum London to linear peptide (PEPSCAN-ELISA),[1],0.4
same,Binding of serum London to looped/cyclic peptides of protein N of SARS-CoV Urbani,[1],0.5
same,Binding of serum SARS-green to linear peptide (PEPSCAN-ELISA),[1],0.4
same,Binding of serum SARS-green to looped/cyclic peptides of protein N of SARS-CoV Urbani,[1],0.3
same,Binding of serum SARS-yellow to linear peptide (PEPSCAN-ELISA),[1],0.5
same,Binding of serum SARS-yellow to looped/cyclic peptides of protein N of SARS-CoV Urbani,[1],0.7
same,Binding of Control Serum Blood-Bank to Looped peptides,[2],0.8
same,Binding of Control serum Blood-bank to linear peptides,[2],0.7
same,Binding of Control serum LUMC to linear peptides,[2],0.6
same,Binding of Control serum LUMC to looped peptides,[2],0.8
same,Binding of a rabbit serum to linear peptides of protein N of SARS-CoV Urbani (Rabbit serum linear peptides),[3],0.1
same,Binding of a rabbit serum to looped/cyclic peptides of protein N of SARS-CoV Urbani (Rabbit serum looped peptides),[3],0.6
same,Binding of antibody 03-018 to linear peptides of the N protein of SARS-CoV Urbani,[4],0.1
same,Binding of antibody 03-018 to looped/cyclic peptides of the N protein of SARS-CoV Urbani,[4],0.2
